Source: publication PMC7402526, “An in vitro quantitative systems pharmacology approach for deconvolving mechanisms of drug-induced, multilineage cytopenias” (PLoS Computational Biology, 2020)

Tests used:
[1] = system: hematopoietic stem cells (HSCs); experiment: Multi-lineage toxicity assay (MLTA), HSCs: concentration-response and QSP model fit; type: cell-based, human
Outline: (§1)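 Freeze-thawed primary human bone marrow CD34+ cells were cultured 6 days in SFEM II with a cytokine cocktail, drug added on day 0. Subsets were counted by 17-parameter flow cytometry with TruCount beads and normalized to vehicle wells. An Emax QSP model (Emax 0–2, L1 regularization) was fitted to these counts.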

[2] = system: multi-potent progenitors (MPPs); experiment: MLTA, MPPs: concentration-response and QSP model fit; type: cell-based, human
Outline: as §1

[3] = system: granulocyte-macrophage progenitor (GMPs); experiment: MLTA, GMPs: concentration-response and QSP model fit; type: cell-based, human; details: Homo sapiens, 144 h, 6 days, normalized to vehicle control, read-out: GMPs normalized cell count
Outline: as §1

[4] = system: granulocytes (Gran-lin); experiment: MLTA, Gran: concentration-response and QSP model fit; type: cell-based, human
Outline: (§2)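 Parameters come from fitting an Emax-based QSP model, with L1 regularization and Emax ranging 0–2, to vehicle-normalized, bead-corrected flow cytometry counts. Counts came from human bone marrow CD34+ cells treated from day 0 through a 6-day multi-lineage cytokine culture in SFEM II, using 2–7 donors per drug.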

[5] = system: monocytes (monocyte-lin); experiment: MLTA, Mono: concentration-response and QSP model fit; type: cell-based, human; details: Homo sapiens, Monocyte, 144 h
Outline: as §2

[6] = system: lymphocyte progenitors (LymP); experiment: MLTA, LymP: concentration-response and QSP model fit; type: cell-based, human; details: Homo sapiens, Lymphocyte, 144 h
Outline: as §1

[7] = system: B cells (B-lin); experiment: MLTA, B-lin: concentration-response and QSP model fit; type: cell-based, human; details: Homo sapiens, B-cell, 144 h
Outline: as §1

[8] = system: total dead cells (totalDeadCells); experiment: MLTA, total dead cells concentration-response; type: cell-based; details: Homo sapiens, 144 h, 6 days, normalized to vehicle control, read-out: total_dead normalized cell count
Protocol: A custom optimized cytokine cocktail was developed using commercially available cytokines (Peprotech, New Jersey) to facilitate simultaneous multi-lineage differentiation and self-renewal of freeze-thawed primary human bone marrow-derived CD34+ cells in SFEM II media (cells and media from StemCell Technologies, Vancouver). Cultures were carried out in ultra-low attachment 96-well plates (Corning, New York) with test article added on day 0 and cultured at 37°C, 85% relative humidity, and 5% CO2 for six days before interrogating drug impact via 17-parameter flow cytometry.
The flow cytometry panel used to define hematopoietic subsets was composed of CD34-PECy7, CD90-PECY5, CD38-AF488, CD371-PE, CD45Ra-BV421, CD14-BV605, CD42b-AF647, CD10-PEDazzle594, CD235a-PerCPCy5.5 (BioLegend, California), CD15-BUV395, CD41a-APCH7, CD71-BV786 (BD Biosciences, California), and DAPI for dead cell exclusion (ThermoFisher, California). In short, Day 6 cells were harvested, FcR-blocked (FcR binding inhibitor, ThermoFisher), surface-stained, then analyzed in a buffer containing TruCount Control Beads using a BD LSR Fortessa SORP fitted with a high-throughput sampler (BD Biosciences, California). Data was analyzed in Diva 6.0.2 and exported to CSV where after all cell data was transformed to cell per mL then normalized on a per-donor basis to untreated control wells to determine drug impact.
Donor material was collected and cultured as described above. The number of replicate donor samples per drug ranged from 2–7 and varied per drug (S1 Table). Drug treatment was added at time 0 and cells were maintained in culture for 6 days. Concentrations tested for each drug compound are contained in S1 Table. Concentrations were selected to span a range that is clinically useful. Following treatment, cell populations were measured using flow cytometry. We extracted cell counts from flow cytometry data, normalized to bead counts, and corrected for well volume.
Each well was normalized to the average of six vehicle control wells. For drugs that were tested across multiple runs of the assay, vehicle-normalized donor data were pooled, and we used the average of these pooled data for further modeling. Normalized data used as model inputs are included in S1 Table.

[9] = cell-killing component, max(0, EmaxT-1)
[10] = Homo sapiens, 144 h, QSP model fit of 6-day MLTA data
[11] = QSP model fit of 6-day MLTA data

EC50 [2, 10]: 4.71 nM | EC50 [4, 10]: 7.91 nM | EC50 [5, 11]: 9.03 nM | EC50 [7, 11]: 10.4 nM
Structure (SMILES): CC(=O)O[C@@]12CO[C@@H]1C[C@H](O)[C@@]1(C)C(=O)[C@H](O)C3=C(C)[C@@H](OC(=O)[C@H](O)[C@@H](NC(=O)OC(C)(C)C)c4ccccc4)C[C@@](O)([C@@H](OC(=O)c4ccccc4)[C@H]21)C3(C)C [docetaxel]
EC50 ([1]; Homo sapiens, Hematopoietic stem cell, 144 h, QSP model fit of 6-day MLTA data): 33.7 nM | activity at 0.0002 µM ([1]; Homo sapiens, Hematopoietic stem cell, 144 h, dose 0.2 nM, 6 days, normalized to vehicle control, read-out: HSCs normalized cell count): 97.9% | activity at 0.001 µM ([1]; Homo sapiens, Hematopoietic stem cell, 144 h, dose 1 nM, 6 days, normalized to vehicle control, read-out: HSCs normalized cell count): 104% | activity at 0.005 µM ([1]; Homo sapiens, Hematopoietic stem cell, 144 h, dose 5 nM, 6 days, normalized to vehicle control, read-out: HSCs normalized cell count): 64.6% | activity at 0.025 µM ([1]; Homo sapiens, Hematopoietic stem cell, 144 h, dose 25 nM, 6 days, normalized to vehicle control, read-out: HSCs normalized cell count): 4% | activity at 0.1 µM ([1]; Homo sapiens, Hematopoietic stem cell, 144 h, dose 100 nM, 6 days, normalized to vehicle control, read-out: HSCs normalized cell count): 0.534% | activity at 0.5 µM ([1]; Homo sapiens, Hematopoietic stem cell, 144 h, dose 500 nM, 6 days, normalized to vehicle control, read-out: HSCs normalized cell count): 2.32% | activity at 2.5 µM ([1]; Homo sapiens, Hematopoietic stem cell, 144 h, dose 2500 nM, 6 days, normalized to vehicle control, read-out: HSCs normalized cell count): 0.559% | Emax ([1]; Homo sapiens, Hematopoietic stem cell, 144 h, parameter from QSP model fitting, read-out: Emax_drug_HSC): 130% | EmaxCK,HSC [1, 9]: 0.3 day⁻¹ | activity at 0.0002 µM ([2]; Homo sapiens, 144 h, dose 0.2 nM, 6 days, normalized to vehicle control, read-out: MPPs normalized cell count): 91% | activity at 0.001 µM ([2]; Homo sapiens, 144 h, dose 1 nM, 6 days, normalized to vehicle control, read-out: MPPs normalized cell count): 107% | activity at 0.005 µM ([2]; Homo sapiens, 144 h, dose 5 nM, 6 days, normalized to vehicle control, read-out: MPPs normalized cell count): 63.9% | activity at 0.025 µM ([2]; Homo sapiens, 144 h, dose 25 nM, 6 days, normalized to vehicle control, read-out: MPPs normalized cell count): 2.42% | activity at 0.1 µM ([2]; Homo sapiens, 144 h, dose 100 nM, 6 days, normalized to vehicle control, read-out: MPPs normalized cell count): 0.694% | activity at 0.5 µM ([2]; Homo sapiens, 144 h, dose 500 nM, 6 days, normalized to vehicle control, read-out: MPPs normalized cell count): 2.03% | activity at 2.5 µM ([2]; Homo sapiens, 144 h, dose 2500 nM, 6 days, normalized to vehicle control, read-out: MPPs normalized cell count): 0.798% | Emax ([2]; Homo sapiens, 144 h, parameter from QSP model fitting, read-out: Emax_drug_MPP): 201% | EmaxCK,MPP [2, 9]: 1.014 day⁻¹ | activity at 0.0002 µM ([3]; dose 0.2 nM): 103% | activity at 0.001 µM ([3]; dose 1 nM): 126% | activity at 0.005 µM ([3]; dose 5 nM): 15.2% | activity at 0.025 µM ([3]; dose 25 nM): 0.367% | activity at 0.1 µM ([3]; dose 100 nM): 0.162% | activity at 0.5 µM ([3]; dose 500 nM): 0.693% | activity at 2.5 µM ([3]; dose 2500 nM): 0.207% | activity at 0.0002 µM ([4]; Homo sapiens, 144 h, dose 0.2 nM, 6 days, normalized to vehicle control, read-out: Gran normalized cell count): 99.7% | activity at 0.001 µM ([4]; Homo sapiens, 144 h, dose 1 nM, 6 days, normalized to vehicle control, read-out: Gran normalized cell count): 112% | activity at 0.005 µM ([4]; Homo sapiens, 144 h, dose 5 nM, 6 days, normalized to vehicle control, read-out: Gran normalized cell count): 2.09% | activity at 0.025 µM ([4]; Homo sapiens, 144 h, dose 25 nM, 6 days, normalized to vehicle control, read-out: Gran normalized cell count): 0.0343% | activity at 0.1 µM ([4]; Homo sapiens, 144 h, dose 100 nM, 6 days, normalized to vehicle control, read-out: Gran normalized cell count): 0.0437% | activity at 0.5 µM ([4]; Homo sapiens, 144 h, dose 500 nM, 6 days, normalized to vehicle control, read-out: Gran normalized cell count): 0.0563% | activity at 2.5 µM ([4]; Homo sapiens, 144 h, dose 2500 nM, 6 days, normalized to vehicle control, read-out: Gran normalized cell count): 0.0425% | Emax ([4]; Homo sapiens, 144 h, parameter from QSP model fitting, read-out: Emax_drug_Gran): 276% | EmaxCK,Gran [4, 9]: 1.762 day⁻¹ | activity at 0.0002 µM ([5]; dose 0.2 nM, 6 days, normalized to vehicle control, read-out: Mon normalized cell count): 103% | activity at 0.001 µM ([5]; dose 1 nM, 6 days, normalized to vehicle control, read-out: Mon normalized cell count): 106% | activity at 0.005 µM ([5]; dose 5 nM, 6 days, normalized to vehicle control, read-out: Mon normalized cell count): 2.6% | activity at 0.025 µM ([5]; dose 25 nM, 6 days, normalized to vehicle control, read-out: Mon normalized cell count): 1.23% | activity at 0.1 µM ([5]; dose 100 nM, 6 days, normalized to vehicle control, read-out: Mon normalized cell count): 1.06% | activity at 0.5 µM ([5]; dose 500 nM, 6 days, normalized to vehicle control, read-out: Mon normalized cell count): 2.03% | activity at 2.5 µM ([5]; dose 2500 nM, 6 days, normalized to vehicle control, read-out: Mon normalized cell count): 1.39% | Emax ([5]; parameter from QSP model fitting, read-out: Emax_drug_Mono): 19.8% | activity at 0.0002 µM ([6]; dose 0.2 nM, 6 days, normalized to vehicle control, read-out: LymP normalized cell count): 96.4% | activity at 0.001 µM ([6]; dose 1 nM, 6 days, normalized to vehicle control, read-out: LymP normalized cell count): 131% | activity at 0.005 µM ([6]; dose 5 nM, 6 days, normalized to vehicle control, read-out: LymP normalized cell count): 24.3% | activity at 0.025 µM ([6]; dose 25 nM, 6 days, normalized to vehicle control, read-out: LymP normalized cell count): 6.02% | activity at 0.1 µM ([6]; dose 100 nM, 6 days, normalized to vehicle control, read-out: LymP normalized cell count): 2.7% | activity at 0.5 µM ([6]; dose 500 nM, 6 days, normalized to vehicle control, read-out: LymP normalized cell count): 7.71% | activity at 2.5 µM ([6]; dose 2500 nM, 6 days, normalized to vehicle control, read-out: LymP normalized cell count): 6.19% | Emax ([6]; parameter from QSP model fitting, read-out: Emax_drug_LymP): 0.16% | activity at 0.0002 µM ([7]; dose 0.2 nM, 6 days, normalized to vehicle control, read-out: B-lin normalized cell count): 89% | activity at 0.001 µM ([7]; dose 1 nM, 6 days, normalized to vehicle control, read-out: B-lin normalized cell count): 94.8% | activity at 0.005 µM ([7]; dose 5 nM, 6 days, normalized to vehicle control, read-out: B-lin normalized cell count): 3.47% | activity at 0.025 µM ([7]; dose 25 nM, 6 days, normalized to vehicle control, read-out: B-lin normalized cell count): 0.169% | activity at 0.1 µM ([7]; dose 100 nM, 6 days, normalized to vehicle control, read-out: B-lin normalized cell count): 1.5% | activity at 0.5 µM ([7]; dose 500 nM, 6 days, normalized to vehicle control, read-out: B-lin normalized cell count): 1.33% | activity at 2.5 µM ([7]; dose 2500 nM, 6 days, normalized to vehicle control, read-out: B-lin normalized cell count): 0.24% | Emax ([7]; parameter from QSP model fitting, read-out: Emax_drug_B): 102% | activity at 0.0002 µM ([8]; dose 0.2 nM): 104% | activity at 0.001 µM ([8]; dose 1 nM): 107% | activity at 0.005 µM ([8]; dose 5 nM): 113% | activity at 0.025 µM ([8]; dose 25 nM): 45.7% | activity at 0.1 µM ([8]; dose 100 nM): 46.1% | activity at 0.5 µM ([8]; dose 500 nM): 41.6% | activity at 2.5 µM ([8]; dose 2500 nM): 48.4%
